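Grown in 96-well plates, cells were treated for 48 hours with each compound at five concentrations. Insufficient inhibition: endpoint recorded as highest concentration tested. Definition used: TGI = concentration required for complete inhibition of growth.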
Experiments:
Test in all cases: NCI tumour cell line growth inhibition, 48 h
SF-268 CNS = system: SF-268 CNS
SW-620 colon = system: SW-620 colon
UACC-62 melanoma = system: UACC-62 melanoma
DLD-1 colon = system: DLD-1 colon
SN12K1 renal = system: SN12K1 renal
COLO 205 colon = system: COLO 205 colon
IGROV1 ovarian = system: IGROV1 ovarian
M19-MEL melanoma = system: M19-MEL melanoma
HT29 colon = system: HT29 colon
CCRF-CEM leukemia = system: CCRF-CEM leukemia
MOLT-4 leukemia = system: MOLT-4 leukemia
RXF 393 renal = system: RXF 393 renal
SK-MEL-28 melanoma = system: SK-MEL-28 melanoma
P388 leukemia = system: P388 leukemia
U251 CNS = system: U251 CNS
HL-60(TB) leukemia = system: HL-60(TB) leukemia
HCT-116 colon = system: HCT-116 colon
SK-MEL-2 melanoma = system: SK-MEL-2 melanoma
P388/ADR leukemia = system: P388/ADR leukemia
SNB-19 CNS = system: SNB-19 CNS
KM12 colon = system: KM12 colon
HOP-18 NSCLC = system: HOP-18 NSCLC
KM20L2 colon = system: KM20L2 colon
OVCAR-5 ovarian = system: OVCAR-5 ovarian
A498 renal = system: A498 renal
LOX IMVI melanoma = system: LOX IMVI melanoma
SNB-75 CNS = system: SNB-75 CNS
SK-OV-3 ovarian = system: SK-OV-3 ovarian
HOP-92 NSCLC = system: HOP-92 NSCLC
SNB-78 CNS = system: SNB-78 CNS
EKVX NSCLC = system: EKVX NSCLC
XF 498 CNS = system: XF 498 CNS
DMS 114 small cell lung = system: DMS 114 small cell lung
RPMI-8226 leukemia = system: RPMI-8226 leukemia
OVCAR-8 ovarian = system: OVCAR-8 ovarian
HCC-2998 colon = system: HCC-2998 colon
CAKI-1 renal = system: CAKI-1 renal
SF-539 CNS = system: SF-539 CNS
A549 NSCLC = system: A549 NSCLC
UO-31 renal = system: UO-31 renal
OVCAR-3 ovarian = system: OVCAR-3 ovarian
DMS 273 small cell lung = system: DMS 273 small cell lung
NCI-H522 lung = system: NCI-H522 lung
MCF7 breast = system: MCF7 breast
HOP-62 NSCLC = system: HOP-62 NSCLC
NCI/ADR-RES ovarian = system: NCI/ADR-RES ovarian
MALME-3M melanoma = system: MALME-3M melanoma
NCI-H23 lung = system: NCI-H23 lung
UACC-257 melanoma = system: UACC-257 melanoma
SF-295 CNS = system: SF-295 CNS
HCT-15 colon = system: HCT-15 colon
K-562 leukemia = system: K-562 leukemia
OVCAR-4 ovarian = system: OVCAR-4 ovarian
NCI-H460 lung = system: NCI-H460 lung
SN12C renal = system: SN12C renal
NCI-H226 lung = system: NCI-H226 lung
SK-MEL-5 melanoma = system: SK-MEL-5 melanoma
ACHN renal = system: ACHN renal
RXF-631 renal = system: RXF-631 renal
M14 melanoma = system: M14 melanoma
LXFL 529 NSCLC = system: LXFL 529 NSCLC
786-0 renal = system: 786-0 renal

CCOC(=O)/C=C/c1c[nH]c(=O)[nH]c1=O
TGI (SF-268 CNS): > 75 µM
TGI (SW-620 colon): > 75 µM
TGI (UACC-62 melanoma): > 75 µM
TGI (DLD-1 colon): > 75 µM
TGI (SN12K1 renal): > 75 µM
TGI (COLO 205 colon): > 75 µM
TGI (IGROV1 ovarian): > 75 µM
TGI (M19-MEL melanoma): > 75 µM
TGI (HT29 colon): > 75 µM
TGI (CCRF-CEM leukemia): > 75 µM
TGI (MOLT-4 leukemia): > 48.7 µM
TGI (RXF 393 renal): > 75 µM
TGI (SK-MEL-28 melanoma): > 75 µM
TGI (P388 leukemia): > 75 µM
TGI (U251 CNS): > 75 µM
TGI (HL-60(TB) leukemia): > 75 µM
TGI (HCT-116 colon): > 75 µM
TGI (SK-MEL-2 melanoma): > 75 µM
TGI (P388/ADR leukemia): > 75 µM
TGI (SNB-19 CNS): > 75 µM
TGI (KM12 colon): > 75 µM
TGI (HOP-18 NSCLC): > 75 µM
TGI (KM20L2 colon): > 75 µM
TGI (OVCAR-5 ovarian): > 75 µM
TGI (A498 renal): > 75 µM
TGI (LOX IMVI melanoma): > 75 µM
TGI (SNB-75 CNS): > 75 µM
TGI (SK-OV-3 ovarian): > 61.2 µM
TGI (HOP-92 NSCLC): > 75 µM
TGI (SNB-78 CNS): > 75 µM
TGI (EKVX NSCLC): > 75 µM
TGI (XF 498 CNS): > 75 µM
TGI (DMS 114 small cell lung): > 75 µM
TGI (RPMI-8226 leukemia): > 57 µM
TGI (OVCAR-8 ovarian): > 75 µM
TGI (HCC-2998 colon): > 75 µM
TGI (CAKI-1 renal): > 75 µM
TGI (SF-539 CNS): > 75 µM
TGI (A549 NSCLC): > 75 µM
TGI (UO-31 renal): > 75 µM
TGI (OVCAR-3 ovarian): > 75 µM
TGI (DMS 273 small cell lung): > 75 µM
TGI (NCI-H522 lung): > 75 µM
TGI (MCF7 breast): > 75 µM
TGI (HOP-62 NSCLC): > 75 µM
TGI (NCI/ADR-RES ovarian): > 75 µM
TGI (MALME-3M melanoma): > 75 µM
TGI (NCI-H23 lung): > 75 µM
TGI (UACC-257 melanoma): > 75 µM
TGI (SF-295 CNS): > 75 µM
TGI (HCT-15 colon): > 75 µM
TGI (K-562 leukemia): > 75 µM
TGI (OVCAR-4 ovarian): > 75 µM
TGI (NCI-H460 lung): > 75 µM
TGI (SN12C renal): > 75 µM
TGI (NCI-H226 lung): > 75 µM
TGI (SK-MEL-5 melanoma): > 75 µM

CCCCCN(CCCCC)C(=O)[C@H](CCC(=O)OCc1ccccc1)NC(=O)c1cc2ccccc2[nH]1
TGI (SF-268 CNS): > 100 µM
TGI (SW-620 colon): > 100 µM
TGI (UACC-62 melanoma): > 100 µM
TGI (DLD-1 colon): > 100 µM
TGI (COLO 205 colon): > 100 µM
TGI (IGROV1 ovarian): > 100 µM
TGI (ACHN renal): > 100 µM
TGI (HT29 colon): > 100 µM
TGI (CCRF-CEM leukemia): > 100 µM
TGI (MOLT-4 leukemia): > 100 µM
TGI (RXF 393 renal): > 100 µM
TGI (SK-MEL-28 melanoma): > 100 µM
TGI (U251 CNS): > 100 µM
TGI (HL-60(TB) leukemia): > 100 µM
TGI (HCT-116 colon): > 100 µM
TGI (SK-MEL-2 melanoma): > 100 µM
TGI (SNB-19 CNS): > 100 µM
TGI (KM12 colon): > 100 µM
TGI (RXF-631 renal): > 100 µM
TGI (HOP-18 NSCLC): > 100 µM
TGI (KM20L2 colon): > 100 µM
TGI (OVCAR-5 ovarian): > 100 µM
TGI (A498 renal): > 100 µM
TGI (LOX IMVI melanoma): > 100 µM
TGI (SNB-75 CNS): > 100 µM
TGI (SK-OV-3 ovarian): > 100 µM
TGI (HOP-92 NSCLC): > 100 µM
TGI (SNB-78 CNS): > 100 µM
TGI (EKVX NSCLC): > 100 µM
TGI (M14 melanoma): > 100 µM
TGI (DMS 114 small cell lung): > 100 µM
TGI (RPMI-8226 leukemia): 7.74 µM
TGI (OVCAR-8 ovarian): > 100 µM
TGI (HCC-2998 colon): > 100 µM
TGI (CAKI-1 renal): > 100 µM
TGI (SF-539 CNS): > 100 µM
TGI (A549 NSCLC): > 100 µM
TGI (UO-31 renal): > 100 µM
TGI (OVCAR-3 ovarian): > 100 µM
TGI (DMS 273 small cell lung): > 100 µM
TGI (NCI-H522 lung): > 100 µM
TGI (HOP-62 NSCLC): > 100 µM
TGI (LXFL 529 NSCLC): > 100 µM
TGI (MALME-3M melanoma): > 100 µM
TGI (NCI-H23 lung): > 100 µM
TGI (UACC-257 melanoma): > 100 µM
TGI (SF-295 CNS): > 100 µM
TGI (HCT-15 colon): > 100 µM
TGI (786-0 renal): > 100 µM
TGI (K-562 leukemia): > 100 µM
TGI (OVCAR-4 ovarian): > 100 µM
TGI (NCI-H460 lung): > 100 µM
TGI (SN12C renal): > 100 µM
TGI (NCI-H226 lung): > 100 µM

From PubChem BioAssay (NCI)
